{
  "source": "paper PMC12164026",
  "about": "“Plant-derived nodule-specific cysteine-rich peptides as potent antifungal agents against Cryptococcus neoformans: mechanisms of action, chimeric peptide enhancement, and immunomodulatory effects” (Current Research in Microbial Sciences, 2025)",
  "key": {"[1]": {"test_system": "Cryptococcus neoformans IFM 5844", "test": "microbe, parasite or virus in culture", "type": "cell-based", "conditions": "IFM 5844, 48 h; read-out: MIC", "protocol": "(§1) The susceptibility of Cryptococcus neoformans IFM 5844 to 20 peptides (Supplementary Table 1) was tested in a widely used synthetic medium to cultivate yeasts (YNB) and in a serum-free medium what is able to support the proliferation of macrophage cells (X-VIVO).\nYNB medium: five-fold diluted Difco Yeast Nitrogen Base w/o Amino Acids medium (Becton, Dickinson and Company, Sparks, MD, USA) supplemented with 1 % dextrose\n(§2) The minimal inhibitory concentration (MIC) of each peptide was determined by using micro-dilution assay. The C. neoformans suspensions were adjusted to 5 × 10^4 cells/mL concentration in either YNB or X-VIVO medium. A 96-well microtiter plate was prepared by adding 95 µL suspension per well followed by 5 µL of serially two-fold diluted peptide solutions achieving a final volume of 100 µl. The concentration of the peptides ranged from 25 to 0.39 µM. For control samples, 5 µL pure medium was added to the yeast cell suspension instead of peptides. Plates were incubated at 37 °C for 48 h in X-VIVO medium and 30 °C for 72 h in YNB medium. After incubation, optical density was measured at 620 nm using a SPECTROstar Nano plate reader (BMG LabTech, Offenburg, Germany). […] The experiments were carried out in three independent biological replicates."}, "[2]": {"test_system": "Cryptococcus neoformans IFM 5844", "type": "cell-based", "conditions": "IFM 5844, 48 h", "protocol": "as §1\nX-VIVO medium: half-diluted X-VIVO™ 15 cell culture medium (Lonza, Verviers, Belgium).\nas §2"}, "[3]": {"test_system": "Cryptococcus neoformans IFM 5844", "test": "Minimal fungicidal concentration (MFC) determination, spotting on YPD", "type": "cell-based", "conditions": "cultures from MIC assays diluted and spotted onto solid YPD, 30 °C, 48 h", "protocol": "Minimal fungicidal concentration (MFC) determination. To assess fungicidal activity, both control and peptide-treated cultures from the MIC assays were diluted 10-fold and 100-fold in sterile distilled water. Five µL from each dilution was then spotted onto solid YPD medium (1 % pepton, 1 % dextrose, 0.5 % yeast extract, 2 % agar). The plates were incubated at 30 °C for 48 h and fungal growth was evaluated. MFC was defined as the lowest peptide concentration at which no visible fungal growth was detected, indicating complete fungicidal activity."}, "[4]": {"test_system": "C. neoformans IFM 5844 cells", "test": "Short-term sub-MIC killing, CFU counts", "type": "cell-based, Cryptococcus neoformans", "conditions": "for proportion of viable cells (CFU relative to control): 0.19 µM (half-MIC), YNB, 2 × 10^6 cells/mL; for reduction in colony-forming units: 30 min", "protocol": "To assess the time-dependent fungicidal activity of X1-NCR247C, C. neoformans cells cultivated for 16 h at 30 °C were collected by centrifugation and washed twice with sterile distilled water. […] Following treatment, cells were pelleted by centrifugation washed with distilled water and serially diluted 10-fold and 100-fold. Fifty microliters of each dilution were plated onto solid YPD medium in triplicate.\nAfter treatment, the cells were pelleted by centrifugation, washed with distilled water and serially diluted 10-fold and 100-fold. Fifty microliters of each dilution were spread onto solid YPD medium in triplicate. For both experimental setups colony forming unit (CFU) counts were determined after 48-hours incubation at 30 °C. The CFU values of peptide-treated samples were compared to untreated control samples, providing insights into the extent of fungal viability reduction. Three independent biological replicates were performed."}, "[5]": {"test_system": "C. neoformans IFM 5844 cells", "test": "Cell membrane permeability, calcein-AM assay by flow cytometry", "type": "cell-based, Cryptococcus neoformans", "conditions": "half-MIC, 2 h, 30 °C, YNB", "protocol": "The effect of the peptides on the cell membrane permeability of C. neoformans IFM 5844 cells was checked by flow cytometry with calcein-AM assay ([Olson, et al., 2001]). Calcein-acetoxymethyl ester (calcein-AM) is a membrane-permeable live-cell dye that, upon entering the cell, is cleaved by intracellular esterases, converting it into calcein, a membrane-impermeable fluorescent marker. The assay was carried out by suspending a total of 1 × 10^7 cells in 100 µl YNB medium containing 20 µg/mL indomethacin (Sigma-Aldrich, Saint Louis, MO, USA) and incubating them at 30 °C for 30 min to inhibit calcein transporters. Following this pre-treatment, membrane-permeable calcein-AM (Invitrogen, Waltham, MA, USA) was added to a final concentration of 5 µg/mL, and the samples were incubated at 30 °C for 3 h allowing the calcein-AM to enter the cells where esterases converted it to fluorescent calcein. After incubation, cells were washed twice with sterile distilled water and subsequently exposed to peptides at half-MIC concentrations in YNB medium for 2 h at 30 °C. Following peptide treatment, cells were washed twice with sterile distilled water, and fluorescence intensity was measured using a FlowSight® flow cytometer (Amnis-EMD Millipore) equipped with a 488-nm excitation laser. Intact cells stained with calcein-AM but not exposed to peptides served as controls. To ensure statistical reliability, four independent experiments were conducted, and fluorescence intensity was recorded from 10,000 cells per sample during each experiment."}, "[6]": {"test_system": "C. neoformans IFM 5844 intact cells", "test": "Susceptibility of intact cells to peptide, CFU counts", "type": "cell-based, Cryptococcus neoformans", "conditions": "30 min, YNB + 0.8 M sorbitol", "protocol": "The C. neoformans IFM 5844 strain was grown in YPD nutrient solution at 30 °C for 12 h by vigorous shaking until the exponential phase was reached (about 5 × 10^7 cells/mL).\nTo assess peptide susceptibility, 2 × 10^6 protoplasts and the same number of intact cells were treated separately with X1-NCR247C peptide at 0.78 or 0.39 µM in YNB supplemented with 0.8 M sorbitol for 30 min at 30 °C. […] Fifty microliters from each dilution were mixed into 2 mL of top-agar (0.8 M sorbitol with 1 % agar) and spread onto the surface of YPD solid medium supplemented with 0.8 M sorbitol. Plates were incubated for 3 days at 30 °C, after which colony forming units were counted to determine the survival rate of peptide-treated cells and protoplasts."}, "C. neoformans cells": {"test_system": "C. neoformans cells", "test": "Effect of X1-NCR247C and calcofluor white on CFU", "type": "cell-based, Cryptococcus neoformans", "protocol": "To assess the effect of X1-NCR247C peptide and calcofluor white, C. neoformans cells were subjected to different treatments. […] For staining, cells were treated with calcofluor white at 2.5 µg/mL for the same duration. As a control, cells were incubated only with calcofluor white for 20 min.\nFor combined treatment, cells were first exposed to calcofluor white (2.5 µg/mL) for 5 min, followed by the addition of X1-NCR247C (0.39 µM), and the incubation continued for 15 additional minutes. Following treatment, cells were washed once with sterile distilled water to remove residual peptide and dye. Serial 10-, 100-, 1000-, and 10,000-fold dilutions were prepared, and 50 µL from each dilution was plated onto solid YPD medium in triplicate. After 48 h of incubation at 30 °C, colony-forming units were counted to determine cell viability under each condition."}},
  "note": "Read-outs that look alike come from different tables or passages of the source. Peptide text beside a SMILES is read from it.",
  "data": [
    {"compound": "CSCC[C@H](NC(=O)[C@H](CCCCN)NC(=O)[C@H](Cc1ccccc1)NC(=O)[C@H](CC(N)=O)NC(=O)[C@H](CC(C)C)NC(=O)[C@@H]1CCCN1C(=O)[C@@H](N)CCCNC(=N)N)C(=O)N[C@@H](CC(C)C)C(=O)N[C@@H](CCCNC(=N)N)C(=O)N[C@@H](Cc1ccccc1)C(=O)N[C@@H](Cc1c[nH]c2ccccc12)C(=O)NCC(=O)N[C@@H](CCC(N)=O)C(=O)N[C@@H](CCC(N)=O)C(=O)N[C@@H](CCC(N)=O)C(=O)N[C@@H](CS)C(=O)N[C@@H](CCCNC(=N)N)C(=O)N[C@@H](CCCNC(=N)N)C(=O)N1CCC[C@H]1C(=O)N[C@@H](CC(C)C)C(=O)N[C@@H](Cc1ccc(O)cc1)C(=O)N[C@@H](CS)C(=O)N[C@@H](CCCNC(=N)N)C(=O)N[C@@H](CCCNC(=N)N)C(=O)N[C@@H](CCCNC(=N)N)C(N)=O", "note": "[X1-NCR247C] (H-RPLNFKMLRFWGQQQCRRPLYCRRR-NH2; N-terminus assumed)", "values": [
      {"measurement": "MIC", "setting": "[1]", "value": 1.56, "unit": "µM"},
      {"measurement": "MIC", "setting": "[2]", "value": 3.12, "unit": "µM"},
      {"measurement": "fungistatic or fungicide mode of action", "setting": "[3]", "value": "fungicidal effect"},
      {"measurement": "proportion of viable cells (CFU relative to control)", "setting": "[4]; 5 min", "value": 25, "unit": "%"},
      {"measurement": "proportion of viable cells (CFU relative to control)", "setting": "[4]; 60 min", "value": 5, "unit": "%"},
      {"measurement": "reduction in colony-forming units", "setting": "[4]; half-MIC (0.19 µM), p ≤ 0.001", "value": "highly significant decrease"},
      {"measurement": "reduction in colony-forming units", "setting": "[4]; quarter-MIC, p ≤ 0.05", "value": "notable reduction"},
      {"measurement": "calcein leakage / membrane permeability disruption", "setting": "[5]", "value": "slightly weaker effect"},
      {"measurement": "CFU count reduction relative to untreated control", "setting": "[6]; 0.39 µM", "value": 97, "unit": "%"},
      {"measurement": "CFU count reduction relative to untreated control", "setting": "[6]; 0.78 µM", "value": 99, "unit": "%"},
      {"measurement": "effect on CFU counts", "setting": "C. neoformans cells; calcofluor white (2.5 µg/mL) pre-treatment 5 min, then peptide 0.39 µM for 15 min", "value": "no reduction in the number of colony-forming units was observed"},
      {"measurement": "effect on CFU counts", "setting": "C. neoformans cells; peptide 0.39 µM (MIC) alone, 20 min, YNB, p ≤ 0.0001", "value": "significantly decrease cell viability"}
    ]}
  ]
}
